Assay results from patent publication US20250129055A1, “GLUCOSIDE DERIVATIVE, AND PREPARATION METHOD THEREFOR AND APPLICATION THEREOF” (BEIJING INCREASE INNOVATIVE DRUG CO., LTD., priority 2020, published 2025).
Where two headings read alike, the source gives them in different places.

Columns and labels:
[1] = target: SGLT2 (Homo sapiens (Human), UniProt P31639); assay: In vitro SGLT2 inhibitory activity: 1-NBDG uptake by CHO-SGLT2 cells; assay type: cell-based
Experimental: The effect of the compounds on SGLT2-mediated glucose uptake was investigated by establishing an SGLT2 overexpression cell model and using the fluorescent glucose (2-deoxy-1-[(7-nitro-2,1,3-benzoxadiazol-4-yl)amino]-D-glucose, 1-NBDG) tracer method to screen out candidate compounds with SGLT2 inhibitory activity.
The humanized SGLT2 overexpression cells (CHO-SGLT2) constructed from Chinese hamster ovary (CHO) cells were cultured in 1640 medium (Gibco) containing 10% fetal bovine serum (Gibco, 10270), subcultured at a ratio of 1:3, and replaced with new culture medium 3 times every week. Fluorescence detection cell culture plates and other culture flasks were purchased from Corning Company. […] Appropriate amounts of all compounds were weighed, prepared into 100 mM stock solutions with DMSO, and stored at 4° C. in the dark.
Before the 1-NBDG uptake test, CHO-SGLT2 cells were digested and seeded in a 96-well cell culture plate with a cell number of 40,000/well. After the cells were cultured for 48 h, the medium was discarded, and 100 μl of choline buffer was added to each well. After the cells were starved at 37° C. for 30 min, the choline buffer was discarded and 100 μl of the newly prepared Na^+ sodium buffer containing […] 1-NBDG and the test compounds (Compound) was added. The solvent DMSO was used as the negative control (Control) for the test compounds.
The Na^+ sodium buffer without 1-NBDG was used as the blank control (Blank). After 1 h of culture, the incubation solution was discarded. The cells were washed with choline buffer solution 3 times, and then 50 μl of neutral lysate was added to each well to lyse the cells on ice for 10 min. The fluorescence value of each well was detected using a multi-functional microplate reader at […].
At least 3 experimental replicates were set for each compound at indicated concentrations, and the data were expressed as mean±SEM. Uptake amount of 1-NBDG by cells=fluorescence value1-NBDG-fluorescence valueBlank. Inhibition rate on uptake amount of SGLT2 glucose (%)=(uptake amountcontrol−uptake amountcompound)/uptake amountcontrol×100%. Concentration-inhibition rate curves were plotted using Graphpad Prism software, and IC50 values were calculated accordingly.

[2] = test system: spontaneous type 2 diabetes mellitus db/db mice; assay: Pharmacodynamic effect on spontaneous type 2 diabetes mellitus db/db mice; assay type: in vivo; conditions: for AUC of blood glucose: 0-24 h; for Concentration of blood glucose 0 h / Concentration of blood glucose 1 h / Concentration of blood glucose 2 h / Concentration of blood glucose 4 h / Concentration of blood glucose 6 h / Concentration of blood glucose 8 h / Concentration of blood glucose 24 h: fasting; for Concentration of blood glucose 0 h: 0 h before administration; for HbA1c: 28th day; for Random blood glucose, the 22nd day (title: 28th day): column head 22nd day
Experimental: Test example 4 Pharmacodynamic effect of the compounds of the present invention on spontaneous type 2 diabetes mellitus db/db mice
Spontaneous type 2 diabetes mellitus db/db mice and the normal control db/m mice (male, 5-6 weeks old) were used. The db/db mice were randomly divide into […] based on random blood glucose, fasting blood glucose, percentage of blood glucose reduction at 40 min, blood triglycerides, total blood cholesterol, and body weight, which were model group (con), positive control group and three groups of test compound with different doses (n=10).
Mice were administered with drugs by gavage.
The mice were fasted for 2 h, and then the 0 h (fasting) blood samples were collected. Then the mice in each group were administered with drugs by gavage, and blood samples were collected at 1 h, 2 h, 4 h, 6 h, 8 h and 24 h after administration. The blood glucose level was measured using glucose oxidase-peroxidase method, and the area under the blood glucose curve was calculated. Moreover, urine samples were collected 2 h and 4 h after administration to determine the concentration of urine glucose.
On the 15th day of continuous administration, before the mice were fasted, blood samples were collected to measure the random blood glucose. Then the mice were fasted and administered with the compounds, and after 2 h, blood samples were collected to measure the fasting blood glucose. […]
The data were expressed as mean±SEM (n=10). The comparison between multiple groups was performed by one-way analysis of variance, and the comparison between two groups was performed by Dunnett's t test. Statistical graphing was performed using Graphpad Prism software.

[3] = test system: mice; conditions: mouse, in vivo, 3000 mg/kg; for Deaths D 1: 1 day; for Deaths D 2: 2 day; for Deaths D 3: 3 day; for Deaths D 4: 4 day; for Deaths D 5: 5 day; for Deaths D 6: 6 day; for Deaths D 7: 7 day; for Death rate (%): 7 days
Experimental: Test Example 5 Research on Safety of the Compounds of the Present Invention
The compounds of the present invention were subjected to the following acute toxicity studies in mice.
The symptoms of toxicity reaction and death time were recorded.
On the day before administration, the animals were fasted but provided with water for 17 h. Each test drug group was administered with the corresponding test drug once by gavage, and the blank control group was administered with the same dose of vehicle once by gavage.

[4] = 0.5 mg/kg single administration
[5] = 1.0 mg/kg single administration
[6] = 2.0 mg/kg single administration
[7] = 22nd day of continuous administration, 0.5, 1.0 and 2.0 mg/kg

Chain of SGLT2 (P31639 whole entry): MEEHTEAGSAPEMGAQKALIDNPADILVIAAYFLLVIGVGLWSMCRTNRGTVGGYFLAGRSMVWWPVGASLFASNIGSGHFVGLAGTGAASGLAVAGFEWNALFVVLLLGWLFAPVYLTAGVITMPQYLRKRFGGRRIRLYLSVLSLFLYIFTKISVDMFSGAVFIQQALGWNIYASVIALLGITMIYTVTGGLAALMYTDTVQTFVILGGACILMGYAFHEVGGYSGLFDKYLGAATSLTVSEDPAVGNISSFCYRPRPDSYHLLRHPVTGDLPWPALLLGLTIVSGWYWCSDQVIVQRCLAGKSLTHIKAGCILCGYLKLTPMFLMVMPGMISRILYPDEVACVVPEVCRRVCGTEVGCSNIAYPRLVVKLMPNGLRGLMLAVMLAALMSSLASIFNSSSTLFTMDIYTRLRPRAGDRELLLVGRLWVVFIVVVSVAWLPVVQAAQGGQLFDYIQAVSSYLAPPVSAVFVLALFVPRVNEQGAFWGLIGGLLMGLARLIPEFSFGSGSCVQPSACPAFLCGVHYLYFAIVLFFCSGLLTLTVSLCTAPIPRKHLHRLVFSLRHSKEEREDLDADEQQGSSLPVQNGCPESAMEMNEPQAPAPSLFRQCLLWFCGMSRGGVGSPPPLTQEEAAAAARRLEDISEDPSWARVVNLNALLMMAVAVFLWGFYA

## CS[C@H]1O[C@@H](c2ccc(C)c(Cc3ccc4c(c3)OCCO4)c2)[C@H](O)[C@@H](O)[C@@H]1O (stereo in doubt) [Compound 2, 2-[3-(2,3-dihydro-1,4-benzodioxin-6-ylmethyl)-4-methylphenyl]-6-(methylthio)oxane-3,4,5-triol]
[1]; CHO-SGLT2 cells, 1-NBDG uptake, read-out: IC50 inhibiting SGLT2
  IC50: 0.105 nM
[1]; compound concentration 1 × 10^−6 mol/L, read-out: Inhibition rate of compounds on SGLT2 (%)
  inhibition at 1 µM: 107 ± 1.1%
[1]; compound concentration 1 × 10^−10 mol/L, read-out: Inhibition rate of compounds on SGLT2 (%)
  inhibition at 0.0001 µM: 40.6 ± 1%
[1]; compound concentration 1 × 10^−11 mol/L, read-out: Inhibition rate of compounds on SGLT2 (%)
  inhibition at 10 pM: 0%
[1]; compound concentration 1 × 10^−12 mol/L, read-out: Inhibition rate of compounds on SGLT2 (%)
  inhibition at 1 pM: 0.3 ± 6.4%
[1]; compound concentration 5 × 10^−7 mol/L, read-out: Inhibition rate of compounds on SGLT2 (%)
  inhibition at 0.5 µM: 81.6 ± 2.5%
[1]; compound concentration 5 × 10^−9 mol/L, read-out: Inhibition rate of compounds on SGLT2 (%)
  inhibition at 0.005 µM: 80.7 ± 3%
[1]; compound concentration 5 × 10^−10 mol/L, read-out: Inhibition rate of compounds on SGLT2 (%)
  inhibition at 0.0005 µM: 61.9 ± 3.6%
[1]; compound concentration 5 × 10^−11 mol/L, read-out: Inhibition rate of compounds on SGLT2 (%)
  inhibition at 50 pM: 39.2 ± 2.1%
[2]; [4]
  AUC of blood glucose: 7046 ± 253.0 mg·h/dL
  Concentration of blood glucose 0 h: 486.3 ± 32.9 mg/dL
  Concentration of blood glucose 1 h: 386.8 ± 22.3 mg/dL
  Concentration of blood glucose 2 h: 362.7 ± 27.2 mg/dL
  Concentration of blood glucose 4 h: 252.3 ± 9.7 mg/dL
  Concentration of blood glucose 6 h: 169.3 ± 4.4 mg/dL
  Concentration of blood glucose 8 h: 134.2 ± 4.6 mg/dL
  Concentration of blood glucose 24 h: 477.7 ± 25.9 mg/dL
[2]; 0.5 mg/kg
  Fasting blood glucose, the 15th day: 185.0 ± 13.6 mg/dL
  Random blood glucose, the 15th day: 307.9 ± 18.4 mg/dL
  Fasting blood glucose, the 22nd day: 193.8 ± 14.7 mg/dL
  HbA1c: 4.7 ± 0.3 %
  Random blood glucose, the 22nd day (title: 28th day): 272.4 ± 16.5 mg/dL
[2]; [5]
  AUC of blood glucose: 6952 ± 295.8 mg·h/dL
  Concentration of blood glucose 0 h: 552.2 ± 24.2 mg/dL
  Concentration of blood glucose 1 h: 412.5 ± 13.1 mg/dL
  Concentration of blood glucose 2 h: 362.3 ± 23.7 mg/dL
  Concentration of blood glucose 4 h: 256.0 ± 10.1 mg/dL
  Concentration of blood glucose 6 h: 161.8 ± 6.9 mg/dL
  Concentration of blood glucose 8 h: 124.3 ± 5.8 mg/dL
  Concentration of blood glucose 24 h: 470.7 ± 25.6 mg/dL
[2]; 1.0 mg/kg
  Fasting blood glucose, the 15th day: 197.9 ± 11.2 mg/dL
  Random blood glucose, the 15th day: 322.7 ± 11.1 mg/dL
  Fasting blood glucose, the 22nd day: 204.1 ± 12.2 mg/dL
  HbA1c: 4.8 ± 0.2 %
  Random blood glucose, the 22nd day (title: 28th day): 258.4 ± 12.8 mg/dL
[2]; [6]
  AUC of blood glucose: 6507 ± 269.6 mg·h/dL
  Concentration of blood glucose 0 h: 519.3 ± 30.7 mg/dL
  Concentration of blood glucose 1 h: 377.0 ± 9.0 mg/dL
  Concentration of blood glucose 2 h: 309.7 ± 13.1 mg/dL
  Concentration of blood glucose 4 h: 259.0 ± 14.9 mg/dL
  Concentration of blood glucose 6 h: 153.3 ± 10.7 mg/dL
  Concentration of blood glucose 8 h: 129.5 ± 12.8 mg/dL
  Concentration of blood glucose 24 h: 427.0 ± 20.2 mg/dL
[2]; 2.0 mg/kg
  Fasting blood glucose, the 15th day: 162.7 ± 12.1 mg/dL
  Random blood glucose, the 15th day: 240.4 ± 16.4 mg/dL
  Fasting blood glucose, the 22nd day: 159.5 ± 8.5 mg/dL
  HbA1c: 4.0 ± 0.2 %
  Random blood glucose, the 22nd day (title: 28th day): 194.7 ± 14.0 mg/dL
[2]; [7]
  Blood triglycerides (TG) level: significantly lower
  Concentration of blood cholesterol: no effect
[2]; 2 h after single administration, 0.5, 1.0 and 2.0 mg/kg
  Concentration of urine glucose: increased
[2]; 4 h after single administration, 0.5, 1.0 and 2.0 mg/kg
  Concentration of urine glucose: not increased
[2]; continuous administration, 0.5, 1.0 and 2.0 mg/kg
  Effect on body weight, food intake and water intake: no significant effect
[2]; single administration, 0.5, 1.0 and 2.0 mg/kg
  Duration of blood glucose lowering: up to 24 h
[3]; female
  Deaths D 1: 0
  Deaths D 2: 0
  Deaths D 3: 0
  Deaths D 4: 0
  Deaths D 5: 0
  Deaths D 6: 0
  Deaths D 7: 0
  Death rate (%): 0%
[3]; male
  Deaths D 1: 0
  Deaths D 2: 0
  Deaths D 3: 0
  Deaths D 4: 1
  Deaths D 5: 0
  Deaths D 6: 1
  Deaths D 7: 0
  Death rate (%): 40%
